Patent publication US8748575B2, “Therapeutic peptides” (Combimab, Inc., priority 2010, dated 2014)
Residues, ends and D or L forms follow the SMILES beside them.

How the values were obtained:
[1] = system: T84 cells (GC-C); experiment: Intact T84 cell cGMP accumulation assay; type: cell-based, Human; design: key to CGMP accumulation assay: 1+ (lowest activity/potency); ++: Results are graded from 1+ (lowest activity/potency) to 5+ (highest activity/potency); +++: Results are graded from 1+ (lowest activity/potency) to 5+ (highest activity/potency); ++++: Results are graded from 1+ (lowest activity/potency) to 5+ (highest activity/potency); +++++: 5+ (highest activity/potency); settings: for activity in the cGMP accumulation assay: FIG. 22, compared to STa peptide; for CGMP accumulation assay: graded activity/potency, T84 cells
Method: The intact T84 cell assay was used to detect the accumulation of cGMP, the product of agonism, upon interaction with a compound (Visweswariah et al., 1992). Human colorectal adenocarcinoma T84 cells were grown to confluence in a 24 well plate using DMEM/F12 medium supplemented with 10% FBS. The media was aspirated from each well and the cells were washed three times with Dulbecco's PBS (1×, no Ca2+ or Mg2+). The cells were then incubated for 30 minutes at 37° C. with 1 mM […] (IBMX) in Optimem medium (no FBS), either with or without potential antagonists. After incubation under these conditions, a 10× concentrated stock of a known GC-C agonist (e.g., STa (5-18)) in PBS was added to each well and the incubation continued for an additional 15 min at 37° C.
The reaction was stopped by the addition of 200 μL of Passive Lysis Buffer (Promega) to each well. The supernatant was removed for cGMP quantitation by RIA using ^125I-labeled cGMP 54 antibody relative to an external cGMP standard curve. The cells were scraped from the surface for protein content determination using a BioRad Protein Assay.

[2] = biological target: T1, GC-C (Mus musculus, UniProt Q3UWA6); experiment: Intestinal membrane 125I-STa competitive radioligand binding assay; design: key to I-125 binding assay: 1+ (lowest activity/potency); ++: Results are graded from 1+ (lowest activity/potency) to 5+ (highest activity/potency); +++: Results are graded from 1+ (lowest activity/potency) to 5+ (highest activity/potency); ++++: Results are graded from 1+ (lowest activity/potency) to 5+ (highest activity/potency); +++++: 5+ (highest activity/potency); settings: graded activity/potency, mouse intestinal membranes
T1 construct: freshly prepared mouse intestine membranes; from tissue; host or cells: mouse intestine (membrane preparation)
T1 sequence (Q3UWA6 20-1072): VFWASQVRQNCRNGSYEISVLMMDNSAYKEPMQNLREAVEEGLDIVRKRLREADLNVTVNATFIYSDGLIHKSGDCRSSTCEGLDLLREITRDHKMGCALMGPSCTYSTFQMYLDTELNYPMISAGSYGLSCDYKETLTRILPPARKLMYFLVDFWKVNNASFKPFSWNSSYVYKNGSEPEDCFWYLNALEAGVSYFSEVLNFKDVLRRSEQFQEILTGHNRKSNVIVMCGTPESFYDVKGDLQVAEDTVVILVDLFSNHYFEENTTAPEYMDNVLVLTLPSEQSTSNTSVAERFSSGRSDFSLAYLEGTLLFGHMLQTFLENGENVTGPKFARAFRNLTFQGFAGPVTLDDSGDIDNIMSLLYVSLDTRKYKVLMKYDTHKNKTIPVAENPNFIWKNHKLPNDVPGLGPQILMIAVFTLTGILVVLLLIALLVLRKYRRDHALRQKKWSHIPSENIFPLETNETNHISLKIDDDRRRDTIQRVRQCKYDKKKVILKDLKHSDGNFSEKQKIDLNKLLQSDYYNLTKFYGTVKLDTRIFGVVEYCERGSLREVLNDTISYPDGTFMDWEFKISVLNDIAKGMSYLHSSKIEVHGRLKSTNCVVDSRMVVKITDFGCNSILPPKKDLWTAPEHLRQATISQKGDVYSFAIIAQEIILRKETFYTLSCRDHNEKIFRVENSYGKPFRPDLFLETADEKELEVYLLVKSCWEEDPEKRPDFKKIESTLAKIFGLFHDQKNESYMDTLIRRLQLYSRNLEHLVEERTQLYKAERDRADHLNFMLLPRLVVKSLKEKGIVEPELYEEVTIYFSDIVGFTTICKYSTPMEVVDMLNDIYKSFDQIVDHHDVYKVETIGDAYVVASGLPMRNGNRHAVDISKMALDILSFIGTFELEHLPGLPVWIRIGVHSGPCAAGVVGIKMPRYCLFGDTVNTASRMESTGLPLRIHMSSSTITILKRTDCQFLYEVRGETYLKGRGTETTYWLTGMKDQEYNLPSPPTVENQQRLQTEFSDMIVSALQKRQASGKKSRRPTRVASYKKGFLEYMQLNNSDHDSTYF
Method: Intestinal membrane 1-125 labeled radioligand binding assay. The intestinal membrane radioligand binding assay was used to assess whether a novel compound could displace ^125I-STa from GC-C (Crane et al., 1992). Each analog was analyzed for its ability to displace ^125I-STa from GC-C in a competitive binding assay. ^125I-ST Displaced” was determined by co-incubating STa analogs (10 μM) with 50,000 DPM of ^125I-STa (1-18) in the presence of mouse intestinal membranes. The displacement (n=3) for each analog was determined relative to a vehicle control.
Membranes were prepared from freshly harvested mouse intestines by first washing away the blood or feces with ice-cold Dulbecco's PBS. Washed organs were minced with a single-edged razor blade, followed by homogenization on ice in 50 mM Tris, pH 7.6, containing 1 mM EDTA, 1 mM PMSF, 1 mM DTT. Debris was then removed by a 15 minute centrifugation at 3,000×G and 4° C. The supernatant is then passed through successively smaller needles (18 gauge through 25 gauge) and frozen at −70° C. until used as a tissue homogenate. If intended for use as isolated membranes, the above homogenate was centrifuged (100,000×G) at 4° C. for 1 hour while fresh and the pellet was re-suspended in homogenization buffer.
The assay was performed in 96 well filter plates which were pre-incubated overnight with 200 μl of 0.3% polyethylenimine (w/v) and washed three times by aspiration with 300 μl of Wash Buffer (150 mM NaCl, 20 mM Sodium Phosphate pH=7.2, 1 mM EDTA) immediately before use. Into each well of was added 50 μl of 3× Binding buffer (150 mM Tris-HCl pH=7.6, 1.98 mM Cysteamine, 0.3% Bacitracin, 1350 mM NaCl, 3 mM EDTA), 40 μl of double-distilled water, 10 μl of either double-distilled water or cold ligand (50 uM STa (5-18) in double-distilled water), 10 μl of increasing concentrations (125 DPM/ul to 50,000 DPM/ul) of radiolabeled 125I -STa (1-18) and finally 40 μl (approximately 2 mg protein/ml) of freshly prepared mouse intestine membranes. The plates were then incubated with mixing at 37 C for two hr, washed successively with six 200 μl aliquots of Wash Buffer and aspirated to dryness. The filter bottoms of each well were punched into individual borosilicate tubes and bound radioactivity determined in a gamma counter. Protein content was determined on an aliquot of the mouse intestine membranes used in the Biorad Protein Assay.

Compound	activity in the cGMP accumulation assay [1]	CGMP accumulation assay [1]	activity in the cGMP accumulation assay ([1]; second experiment)	I-125 binding assay [2]
C[C@@H]1NC(=O)[C@@H]2CCCN2C(=O)[C@H](CC(N)=O)NC(=O)[C@@H]2CSSC[C@H](N)C(=O)N[C@H]3CSSC[C@H](NC1=O)C(=O)N[C@@H]([C@@H](C)O)C(=O)NCC(=O)N[C@H](C(=O)N[C@@H](Cc1ccc(O)cc1)C(=O)O)CSSC[C@H](NC(=O)[C@H](Cc1ccc(O)cc1)NC(=O)[C@H](CCC(=O)O)NC3=O)C(=O)N2 [Linaclotide, H2N Cys Cys Glu Tyr Cys Cys Asn Pro Ala Cys Thr Gly Cys Tyr COOH] (HELM PEPTIDE1{C.C.E.Y.C.C.N.P.A.C.T.G.C.Y}$PEPTIDE1,PEPTIDE1,1:R3-6:R3|PEPTIDE1,PEPTIDE1,2:R3-10:R3|PEPTIDE1,PEPTIDE1,5:R3-13:R3$$$V2.0)	lower than the STa peptide	+++	lower than the STa peptide	+++
H2N Asn Thr Phe Tyr Cys Cys Glu Leu Cys Cys Asn Pro Ala Cys Ala Gly Cys Tyr COOH [STa(1-18)]	–	++++	–	+++
